Reference: ChEMBL document CHEMBL1201862, “PubChem BioAssay data set” (2004)
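96-well plates; 48 h exposure; 5 concentrations. Endpoints by linear interpolation between flanking doses. Not reached: highest tested concentration assigned. At the GI50, growth is halved.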 The source made the active and inactive calls. No stated cut-off is given here; in the data, active = GI50 up to about 1.1 µM and inactive = higher. Numbered stars: 1 amine (or outer) side, 2 acyl side, 3 side chain; on linkers, the order of the positions; unused ones are H or OH. Bridge positions count the residues as written; N and C are the ends. Square brackets hold non-standard residues; d marks the D form. Peptide text beside a SMILES is read from it. I, II: the chains in the order shown. Actinocin(9to1) = Cc1c2oc3c(C)ccc(C(=O)[*:1])c3nc-2c(C(=O)[*:2])c(N)c1=O; X48 = O=C1CC(C(=O)[*:2])N([*:1])C1; NMeV = CN[CH](C(=O)O)C(C)C; Sar = CNCC(=O)O

Tests used:
Assay in all cases: NCI tumour cell line growth inhibition, 48 h
BT-549 = test system: BT-549
T47D = test system: T47D
Hs-578T = test system: Hs-578T
DMS-273 = test system: DMS-273
HOP-18 = test system: HOP-18
DLD-1 = test system: DLD-1
LXFL 529 = test system: LXFL 529

Row | Compound | GI50 (BT-549) | GI50 (T47D) | GI50 (Hs-578T) | GI50 (DMS-273) | GI50 (HOP-18) | GI50 (DLD-1) | GI50 (LXFL 529)
1 | Cc1nn(C(=O)Cc2ccccc2)c2c1C(c1ccc(O)cc1)SC(=N)N2 (centres undefined) | > 100 µM (inactive) | > 100 µM (inactive) | > 100 µM (inactive) | – | – | – | –
2 | COc1cccc(/C=N/C23CC4CC(CC(C4)C2)C3)c1 | – | – | – | > 100 µM (inactive) | – | – | –
3 | O=C(c1cc(Cl)ccc1Cl)N1CCN(C(=O)c2cc(Cl)ccc2Cl)CC1 | > 100 µM (inactive) | 48.8 µM (inactive) | > 100 µM (inactive) | – | – | – | –
4 | OCCc1ccsc1-c1sc(-c2cc(CCO)c(-c3sccc3CCO)s2)cc1CCO | 6.11 µM (inactive) | – | – | – | – | – | –
5 | CCOc1ccc(-n2nnc3c(N)nc(N)nc32)cc1 | > 100 µM (inactive) | > 100 µM (inactive) | – | – | – | – | –
6 | COC(=O)C1C(=O)C(C(=O)OC)C2CCC1N2C (centres undefined) | 0.628 µM (active) | 30.7 µM (inactive) | 52.2 µM (inactive) | – | – | – | –
7 | O=C(NN=C1NCCCN1)c1ccco1 | > 100 µM (inactive) | > 100 µM (inactive) | > 100 µM (inactive) | – | – | – | –
8 | CCOC(=O)c1c(SCC#N)n(-c2ccccc2)c(=S)n(-c2ccccc2)c1=O | 36.1 µM (inactive) | 44 µM (inactive) | 28.1 µM (inactive) | – | – | – | –
9 | COc1cc(Cc2cnc(N)nc2N)cc(OC)c1OCCCNc1ccc([N+](=O)[O-])cc1 | 10.5 µM (inactive) | 8.07 µM (inactive) | 18.5 µM (inactive) | – | – | – | –
10 | CCN(CC)C(=O)Cn1c2c(c3ccccc31)CCCC2 | > 100 µM (inactive) | – | 24.5 µM (inactive) | – | – | – | –
11 | O=C1C(=Cc2ccc(O)cc2)N=C(c2ccccc2)N1n1c(-c2ccccc2)nc2ccccc2c1=O | > 100 µM (inactive) | 49.8 µM (inactive) | 81.5 µM (inactive) | – | – | – | –
12 | CC(=O)c1ccc(-c2oc(-c3ccccc3)cc2-c2ccc3c(c2)OCO3)s1 | – | 17 µM (inactive) | > 100 µM (inactive) | – | – | – | –
13 | Cc1ccccc1[P+](C)(c1ccccc1C)c1ccccc1C | 7.48 µM (inactive) | 3.06 µM (inactive) | 17.8 µM (inactive) | – | – | – | –
14 | COC(=O)c1cc(C#N)[nH]c1-c1ccsc1 | 58.7 µM (inactive) | 25.1 µM (inactive) | > 100 µM (inactive) | – | – | – | –
15 | O=C(N/N=C/c1ccc([N+](=O)[O-])cc1)c1cccc2nc3ccccc3nc12 | > 55.8 µM (inactive) | > 100 µM (inactive) | 9.75 µM (inactive) | – | – | – | –
16 | OC(C/C(=N\N=C(/CC(O)(C(F)(F)F)C(F)(F)F)c1ccccc1)c1ccccc1)(C(F)(F)F)C(F)(F)F | > 10 µM (inactive) | > 10 µM (inactive) | > 10 µM (inactive) | – | – | – | –
17 | CC(=O)C1=CN=C2C(=O)N(c3ccccc3)N(C)C12C (centres undefined) | > 100 µM (inactive) | – | – | – | – | – | –

Row | Compound | GI50 (BT-549) | GI50 (T47D) | GI50 (Hs-578T) | GI50 (DMS-273) | GI50 (HOP-18) | GI50 (DLD-1) | GI50 (LXFL 529)
18 | C#CCn1c(=O)c2cc(OC)c(OC)cc2n(CC#C)c1=O | – | > 10 µM (inactive) | > 10 µM (inactive) | – | – | – | –
19 | CC1(C)OC[C@@H](C[C@H](O)COCc2ccccc2)O1 | > 100 µM (inactive) | > 100 µM (inactive) | > 100 µM (inactive) | – | – | – | –
20 | CCn1c(SCC(=O)NNC(=S)Nc2ccc(Cl)cc2)nc2ccccc2c1=O | 31.8 µM (inactive) | 35.8 µM (inactive) | > 100 µM (inactive) | – | – | – | –
21 | O=c1oc(-c2ccccc2)c(-c2ccccc2)n1-c1ccc(Br)cc1 | 25.5 µM (inactive) | 29.4 µM (inactive) | 32.3 µM (inactive) | – | – | – | –
22 | Cc1cc(C)nc(NC(=S)Nc2cccc(Cl)c2)c1 | > 100 µM (inactive) | > 88.3 µM (inactive) | > 100 µM (inactive) | – | – | – | –
23 | CN(C)c1ccc(/C=C2\N=C(NN)NC2=O)cc1 | > 100 µM (inactive) | 44.4 µM (inactive) | > 100 µM (inactive) | – | – | – | –
24 | CCN(CC)CCNC(=O)c1cn2c(ccc3sc4ccccc4c(=O)c32)n1 | 13.8 µM (inactive) | 14.5 µM (inactive) | 15.3 µM (inactive) | – | – | – | –
25 | COC(=O)[C@@]12CC3CN(Cc4c1[nH]c1ccccc41)C2CC3=O | > 100 µM (inactive) | > 100 µM (inactive) | – | – | – | – | –
26 | O=C1CC[C@@H](NC(=O)Cc2ccccc2)C(=O)N1 | – | – | – | > 100 µM (inactive) | > 100 µM (inactive) | > 100 µM (inactive) | > 100 µM (inactive)
27 | Nc1nc(Cl)cc(OCC2(CO)CCCC2)n1 | – | – | > 100 µM (inactive) | – | – | – | –
28 | Cc1nc2ccc(S(=O)(=O)Nc3ccc(Cl)cc3)cc2c(=O)n1NC(=O)CNc1ccc(Cl)cc1 | > 100 µM (inactive) | – | > 100 µM (inactive) | – | – | – | –
29 | NC(Cc1ccc(S(=O)(=O)O)cc1)C(=O)NC(Cc1ccc(S(=O)(=O)O)cc1)C(=O)O (centres undefined) | > 100 µM (inactive) | > 100 µM (inactive) | > 100 µM (inactive) | – | – | – | –
30 | O=S(=O)(O)c1ccc2c(/N=N\c3ccc(F)cc3)c(O)c(S(=O)(=O)O)cc2c1 | > 100 µM (inactive) | > 100 µM (inactive) | > 100 µM (inactive) | – | – | – | –
31 | COC1=CC(=O)C2C(C1=O)C(c1ccccc1)[C@H]2C (some centres undefined) | – | – | – | > 100 µM (inactive) | – | > 10 µM (inactive) | 37.2 µM (inactive)
32 | Cc1cc(S(=O)(=O)Nc2nc(N)n(-c3ccccn3)n2)c(S)cc1Cl | > 100 µM (inactive) | > 100 µM (inactive) | 75 µM (inactive) | – | – | – | –
33 | Cc1c2oc3c(C)ccc(C(=O)NC4C(=O)NC(C(C)C)C(=O)N5CC(=O)CC5C(=O)N(C)CC(=O)N(C)C(C(C)C)C(=O)OC4C)c3nc-2c(C(=O)NC2C(=O)NC(C(C)C)C(=O)N3CC(=O)CC3C(=O)N(C)CC(=O)N(C)C(C(C)C)C(=O)OC2C)c(N)c1=O (centres undefined) (I: TV[X48][Sar][NMeV] / II: TV[X48][Sar][NMeV]; ester I:1-I:C, II:1-II:C; linker I:N-II:N via Actinocin(9to1); configuration not given here) | – | > 1 µM (active) | – | – | – | – | –
